Earlier results as cited in patent US20250114344A1, “COMBINATORIAL PHARMACOTHERAPY FOR THE RESTORATION OF NEURO-FUNCTION AND COMBINATORIAL PHARMACOLOGICAL COMPOSITION THEREFORE” (Neuro-Innovators, LLC., priority 2022, published 2025).

Legend:
[1] = compared with aspirin; fewer hemorrhagic events
[2] = molecular target: CYP3A4 (Homo sapiens, UniProt P08684)
[3] = test system: MANF (a form of BDNF); details: Prefrontal Cortex and Striatum, compared to controls

Sequence of CYP3A4 (P08684 whole entry, species assumed): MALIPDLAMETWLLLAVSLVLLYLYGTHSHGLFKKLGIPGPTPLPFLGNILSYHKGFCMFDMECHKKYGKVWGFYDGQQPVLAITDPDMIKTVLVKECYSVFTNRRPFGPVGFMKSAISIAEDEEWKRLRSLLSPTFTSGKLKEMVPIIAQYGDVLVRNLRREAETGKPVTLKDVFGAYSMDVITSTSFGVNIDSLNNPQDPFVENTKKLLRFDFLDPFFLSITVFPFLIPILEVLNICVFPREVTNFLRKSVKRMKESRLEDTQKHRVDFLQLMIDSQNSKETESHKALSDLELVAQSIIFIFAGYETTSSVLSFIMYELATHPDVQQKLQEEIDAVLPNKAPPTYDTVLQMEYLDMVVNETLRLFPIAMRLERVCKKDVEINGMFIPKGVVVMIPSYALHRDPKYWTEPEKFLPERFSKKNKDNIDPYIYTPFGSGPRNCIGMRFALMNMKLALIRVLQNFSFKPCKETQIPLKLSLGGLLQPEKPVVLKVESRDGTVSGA

interaction with CYP3A4 [2]	SMILES	incidence of recurrent stroke [1]	MANF expression [3]
substrate for CYP3A4	O=C1CCc2cc(OCCCCc3nnnn3C3CCCCC3)ccc2N1 [Cilostazol]	significantly reduce the incidence of recurrent stroke	–
–	O=C([O-])[O-].[Li+].[Li+] [lithium, Lithium Carbonate]	–	significant increase
